Test [1] has as its target T1, Alpha-1A adrenergic receptor (Homo sapiens) (UniProt P35348).
T1 sequence (whole entry): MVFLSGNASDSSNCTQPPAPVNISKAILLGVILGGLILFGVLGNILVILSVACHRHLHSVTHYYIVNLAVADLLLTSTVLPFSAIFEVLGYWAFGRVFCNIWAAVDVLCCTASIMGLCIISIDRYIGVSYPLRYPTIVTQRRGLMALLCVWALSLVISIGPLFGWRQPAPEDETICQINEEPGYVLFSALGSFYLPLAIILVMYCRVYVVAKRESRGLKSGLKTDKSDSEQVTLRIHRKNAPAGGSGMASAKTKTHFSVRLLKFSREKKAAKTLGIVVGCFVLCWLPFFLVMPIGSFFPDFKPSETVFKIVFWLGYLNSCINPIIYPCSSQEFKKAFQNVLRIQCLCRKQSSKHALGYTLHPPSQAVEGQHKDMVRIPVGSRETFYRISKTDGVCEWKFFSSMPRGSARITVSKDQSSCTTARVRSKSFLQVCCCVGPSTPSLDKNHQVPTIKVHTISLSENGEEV
Description: Effect of 1 uM external [Ca2+] on the contractions induced by compound in the canine saphenous vein at EC100 concentration and expressed as percent of control response in […] Ca+; absolute concentration 5.0 X 10e-5 M. Format: functional, tissue-based. The following applies: Canis lupus familiaris.

Test [2] concerns the target T1, Alpha-1A adrenergic receptor (Homo sapiens). Kind of test: Effect of zero uM external [Ca2+] on the contractions induced by compound in the canine saphenous vein at EC100 concentration experimented in the presence of 2 mM EGTA and expressed as percent of control response in […] Ca+ physiological saline; absolute concentration 5.0 X 10e-5 M. Format: functional, tissue-based. The following applies: Canis lupus familiaris.

Test [3] shares this target. Kind of test: Effect of zero external [Ca2+] on the contractions induced by acompound in the canine saphenous vein at EC50 concentration experimented in the presence of 2 mM EGTA and expressed as percent of control response in […] Ca+ physiological saline; abso. Format: functional, tissue-based. The following applies: Canis lupus familiaris.
Test [4] has the same target. Kind of test: Effect of zero external [Ca2+] on the contractions induced by compound in the canine saphenous vein in the presence of 2 mM EGTA and expressed as percent of control response in […] Ca+ physiological saline; absolute concentration 1.5 +/-0.7 X 10e-. Format: functional, tissue-based. The following applies: Canis lupus familiaris.
For test [5] the target is unchanged. Description: Effect of 1 uM external [Ca2+] on the contractions induced by compound in the canine saphenous vein at EC25 concentration and expressed as percent of control response in […] Ca+; absolute concentration 1.5 +/-0.7 X 10e-7 M. Format: functional, tissue-based. The following applies: Canis lupus familiaris.
Test [6] in a line: Dissociation constant against constrictor response to the compound blocked competitively by phentolamine for alpha-mediated events. Format: functional.
In test [7] the target is T1, Alpha-1A adrenergic receptor (Homo sapiens). Description: Effect of 1 uM external [Ca2+] on the contractions induced by compound in the canine saphenous vein at EC50 concentration and expressed as percent of control response in […] Ca+; absolute concentration 5.0 +/- 1.5 X 10e-7 M. Format: functional, tissue-based. The following applies: Canis lupus familiaris.

Where only a bound is given, the exact number is not on record here.

For the molecule `CNCCc1ccc(O)c(NS(C)(=O)=O)c1`, the Control response was 78.3% in test [1]; 37.9% in test [2]; 20.2% in test [3]; 6% in test [4]; 8.1% in test [5]; 37.6% in test [7]. For the same molecule, the Ki in test [6] is less than 20 nM.

The record behind these values is ChEMBL document CHEMBL1123141, “N-[2-hydroxy-5-[2-(methylamino)ethyl]phenyl]methanesulfonamide. A potent agonist which releases intracellular calcium by activation of alpha 1-adrenoceptors” (J Med Chem, 1985).
